Data set [1] has as its system Hepatocyte. The data set is described as follows: Antihepatotoxic activity against 1.5 hrs galactosamine pretreatment-induced cytotoxicity in Wistar rat hepatocytes assessed as glutamic-pyruvic transaminase activity at 0.01 mg/ml after 30 hrs relative to control. The data set is classed as functional.
Data set [2] relates to Hepatocyte. The data set is described as follows: Antihepatotoxic activity against 1.5 hrs galactosamine pretreatment-induced cytotoxicity in Wistar rat hepatocytes assessed as glutamic-pyruvic transaminase activity at 0.1 mg/ml after 30 hrs relative to control. The class given is functional.
Data set [3] relates to Hepatocyte. The data set is described as follows: Antihepatotoxic activity against 1.5 hrs galactosamine pretreatment-induced cytotoxicity in Wistar rat hepatocytes assessed as glutamic-pyruvic transaminase activity at 1 mg/ml after 30 hrs relative to control. The data set is classed as functional.
Data set [4] relates to Hepatocyte. The data set is described as follows: Cytotoxicity in Wistar rat hepatocytes assessed as glutamic-pyruvic transaminase activity at 0.01 mg/ml after 30 hrs. The data set is classed as cell-based.
For data set [5], the system named is Hepatocyte. The data set is described as follows: Cytotoxicity in Wistar rat hepatocytes assessed as glutamic-pyruvic transaminase activity at 0.1 mg/ml after 30 hrs. The data set is classed as cell-based.
Data set [6] deals with Hepatocyte. The data set is described as follows: Cytotoxicity in Wistar rat hepatocytes assessed as glutamic-pyruvic transaminase activity at 1 mg/ml after 30 hrs. The data set is classed as cell-based.
Data set [7] has as its system Hepatocyte. The data set is described as follows: Effect on 1.5 hrs galactosamine pretreatment-induced cytotoxicity in Wistar rat hepatocytes assessed as glutamic-pyruvic transaminase activity at 1 uM. The data set is classed as functional.
In data set [8] the test system is Hepatocyte. The data set is described as follows: Effect on 1.5 hrs galactosamine pretreatment-induced cytotoxicity in Wistar rat hepatocytes at 1 uM. The data set is classed as functional, cell-based.

Active and inactive are the calls of the source. The rule behind the calls is not given here.

Regarding `COc1cc(C2Oc3cc([C@H]4Oc5cc(O)cc(O)c5C(=O)[C@@H]4O)ccc3OC2CO)ccc1O` (some centres undefined) [SILIBININ], the Activity is 106% in data set [1]; 103% in data set [2]; 66% in data set [3]; 29 IU/L in data set [4]; 157 IU/L in data set [5]; 93 IU/L in data set [6].

In the case of `O=C(/C=C/c1ccc(O)c(O)c1)O[C@@H]1C[C@@](OC(=O)/C=C/c2ccc(O)c(O)c2)(C(=O)O)C[C@@H](O)[C@@H]1O` [CYNARIN], the Activity in data set [1] turned out to be 95%; in data set [2], 84%; in data set [3], 48%; in data set [4], 20 IU/L; in data set [5], 27 IU/L; in data set [6], 51 IU/L.

For the compound `COc1cc(C(=O)O[C@H]2[C@@H]3C=CO[C@@H](O[C@@H]4O[C@H](CO)[C@@H](O)[C@H](O)[C@H]4O)[C@@H]3[C@@]3(CO)O[C@@H]23)ccc1O` [PICROSIDE II], the Activity was 103% in data set [1]; 101% in data set [2]; 78% in data set [3]; 27 IU/L in data set [4]; 28 IU/L in data set [5]; 40 IU/L in data set [6].

Consider `COc1cc([C@@H]2c3cc4c(cc3C[C@H]3COC(=O)[C@@H]32)OCO4)cc(OC)c1OC` [DESOXYPODOPHYLLOTOXIN], for which the Activity in data set [1] is 93%; in data set [2] it was 50%; in data set [3], 92%; in data set [4], 43 IU/L; in data set [5], 35 IU/L; in data set [6], 137 IU/L.

As for `O=C(/C=C/c1ccccc1)OC[C@H]1O[C@@H](O[C@@H]2OC=C[C@H]3[C@H](O)[C@@H]4O[C@]4(CO)[C@@H]23)[C@H](O)[C@@H](O)[C@@H]1O` [PICROSIDE I], the Activity in data set [1] is given as 96%; in data set [2] it was 122%; in data set [3], 111%; in data set [4] it was 24 IU/L; in data set [5], 50 IU/L; in data set [6], 131 IU/L.

Take `CC1(C)[C@@H](O)CC[C@]2(C)[C@H]3C(=O)C=C4[C@@H]5C[C@@](C)(C(=O)O)CC[C@]5(C)CC[C@@]4(C)[C@]3(C)CC[C@@H]12` [ENOXOLONE]: the Activity was determined as 58% in data set [2]; 27% in data set [3]; 26 IU/L in data set [4]; 16 IU/L in data set [5]; 42 IU/L in data set [6].

With `CC1(C)[C@@H](O[C@H]2O[C@H](C(=O)O)[C@@H](O)[C@H](O)[C@H]2O[C@@H]2O[C@H](C(=O)O)[C@@H](O)[C@H](O)[C@H]2O)CC[C@]2(C)[C@H]3C(=O)C=C4[C@@H]5C[C@@](C)(C(=O)O)CC[C@]5(C)CC[C@@]4(C)[C@]3(C)CC[C@@H]12` [GLYCYRRHIZIN], the Activity in data set [1] was 103%; in data set [2] it was 100%; in data set [3], 24%; in data set [4], 24 IU/L; in data set [5], 59 IU/L; in data set [6] it was 21 IU/L.

With `CSCC[C@H](N)C(=O)O` [METHIONINE], the Activity turned out to be 106% in data set [1]; 113% in data set [2]; 122% in data set [3]; 24 IU/L in data set [4]; 28 IU/L in data set [5]; 25 IU/L in data set [6].

In the case of `C[C@@H]1C[C@H]2[C@@H]3CCC4=CC(=O)C=C[C@]4(C)[C@@]3(F)[C@@H](O)C[C@]2(C)[C@@]1(O)C(=O)CO` [DEXAMETHASONE], in data set [7], the Activity is reported as 96 IU/L. For the same compound, the outcome in data set [8] was inactive.

(Values after ChEMBL document CHEMBL1145673, “Assay method for antihepatotoxic activity using galactosamine-induced cytotoxicity in primary-cultured hepatocytes” (J Nat Prod, 1983).)
